Measured values published in PubChem BioAssay AID248 (DTP/NCI, 2004).
Values joined by “and” are separate entries in the source; they are usually repeats but may differ in a detail not shown here. Equal entries are not always repeated. Inconclusive results and toxic doses are left out. Rule as the data show it: active = T/C of 150% or more; inactive = T/C below 125%.

Tested on: L1210 leukemia ip in BDF1 mice, survival T/C
Assay: NCI In Vivo Anticancer Drug Screen. Data for tumor model L1210 Leukemia (intraperitoneal) in B6D2F1 (BDF1) mice
Settings: endpoint: mean survival time, higher = longer survival
In short: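 Transplanted-tumor mice were given test agent; controls received vehicle only. Survival readings from the two groups were divided (treated over control).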

[1] = dose: 100.0 mg/kg/injection, schedule: Q04DX003 (ip), vehicle: saline with Tween-80
[2] = dose: 200.0 mg/kg/injection, schedule: Q04DX003 (ip), vehicle: saline with Tween-80
[3] = dose: 400.0 mg/kg/injection, schedule: Q04DX003 (ip), vehicle: saline with Tween-80

Measured: T/C

O=C1c2ccccc2CCCC12OC2c1ccccc1 (stereo not drawn)
inactive: dose: 75.0 mg/kg/injection, schedule: Q04DX003 (ip), vehicle: Klucel (hydroxypropylcellulose) (HPC) 92 % of control | dose: 150.0 mg/kg/injection, schedule: Q04DX003 (ip), vehicle: Klucel (hydroxypropylcellulose) (HPC) 93 % of control | dose: 300.0 mg/kg/injection, schedule: Q04DX003 (ip), vehicle: Klucel (hydroxypropylcellulose) (HPC) 95 % of control

NCCNCCN1CC1
inactive: dose: 10.0 mg/kg/injection, schedule: Q04DX002 (ip), vehicle: saline 104 % of control | dose: 20.0 mg/kg/injection, schedule: Q04DX002 (ip), vehicle: saline 115 % of control | dose: 40.0 mg/kg/injection, schedule: Q04DX002 (ip), vehicle: saline 106 % of control

CC(=O)C(Br)C(C)=O.CC(=O)C(Br)C(C)=O.CC(=O)C(Br)C(C)=O.[Rh]
inactive: dose: 50.0 mg/kg/injection, schedule: Q01DX001 (ip), vehicle: other 97 % of control | dose: 100.0 mg/kg/injection, schedule: Q01DX001 (ip), vehicle: other 96 % of control | dose: 200.0 mg/kg/injection, schedule: Q01DX001 (ip), vehicle: other 94 % of control | dose: 400.0 mg/kg/injection, schedule: Q01DX001 (ip), vehicle: other 94 % of control

O=[N+]([O-])c1ccc(/C=C/c2ccc(S(=O)(=O)F)cc2Cl)c(Cl)c1
inactive: dose: 100.0 mg/kg/injection, schedule: Q01DX001 (ip), vehicle: Klucel (hydroxypropylcellulose) (HPC) 97 % of control | dose: 200.0 mg/kg/injection, schedule: Q01DX001 (ip), vehicle: Klucel (hydroxypropylcellulose) (HPC) 87 % of control | dose: 400.0 mg/kg/injection, schedule: Q01DX001 (ip), vehicle: Klucel (hydroxypropylcellulose) (HPC) 93 % of control

O=[N+]([O-])c1ccc(Nc2ccccc2)nc1
inactive: dose: 50.0 mg/kg/injection, schedule: Q01DX001 (ip), vehicle: carboxymethylcellulose (CMC) 106 % of control | dose: 100.0 mg/kg/injection, schedule: Q01DX001 (ip), vehicle: carboxymethylcellulose (CMC) 106 % of control | dose: 200.0 mg/kg/injection, schedule: Q01DX001 (ip), vehicle: carboxymethylcellulose (CMC) 101 % of control | dose: 400.0 mg/kg/injection, schedule: Q01DX001 (ip), vehicle: carboxymethylcellulose (CMC) 106 % of control

CN(C)c1cc2c(cc1[N+](=O)[O-])-c1ccccc1C2=O
inactive: [1] 100 % of control | [2] 100 % of control | [3] 100 % of control

O=C(c1ccccc1)c1cccc([N+](=O)[O-])c1
inactive: [1] 98 % of control | [2] 93 % of control | [3] 89 % of control

CCCOc1ccc(C2=NCC(C)S2)c(C)c1 (stereo not drawn)
inactive: dose: 12.5 mg/kg/injection, schedule: Q01DX009 (ip), vehicle: Klucel (hydroxypropylcellulose) (HPC) 94 % of control | dose: 25.0 mg/kg/injection, schedule: Q01DX009 (ip), vehicle: Klucel (hydroxypropylcellulose) (HPC) 91 % of control | dose: 50.0 mg/kg/injection, schedule: Q01DX009 (ip), vehicle: Klucel (hydroxypropylcellulose) (HPC) 98 % of control and 90 % of control | dose: 100.0 mg/kg/injection, schedule: Q01DX005 (ip), vehicle: Klucel (hydroxypropylcellulose) (HPC) 101 % of control | dose: 200.0 mg/kg/injection, schedule: Q01DX005 (ip), vehicle: Klucel (hydroxypropylcellulose) (HPC) 89 % of control

CCNC(=O)C1C2C=CC(C2)C1C(=O)NCC (stereo not drawn)
inactive: [1] 91 % of control | [2] 96 % of control | [3] 87 % of control

O=C(O)CCCCCNC(=O)c1ccccc1
inactive: dose: 100.0 mg/kg/injection, schedule: Q01DX009 (ip), vehicle: Klucel (hydroxypropylcellulose) (HPC) 92 % of control | dose: 100.0 mg/kg/injection, schedule: Q04DX003 (ip), vehicle: saline 114 % of control | dose: 200.0 mg/kg/injection, schedule: Q01DX009 (ip), vehicle: Klucel (hydroxypropylcellulose) (HPC) 93 % of control | dose: 200.0 mg/kg/injection, schedule: Q04DX003 (ip), vehicle: saline 100 % of control | dose: 400.0 mg/kg/injection, schedule: Q01DX009 (ip), vehicle: Klucel (hydroxypropylcellulose) (HPC) 102 % of control | dose: 400.0 mg/kg/injection, schedule: Q04DX003 (ip), vehicle: saline 103 % of control

CC(C)CSC(C(O)C(O)C(O)CO)n1ccc(N)nc1=O (stereo not drawn)
inactive: dose: 100.0 mg/kg/injection, schedule: Q01DX005 (ip), vehicle: saline 90 % of control | dose: 200.0 mg/kg/injection, schedule: Q01DX005 (ip), vehicle: saline 98 % of control

COc1cccc(CC(=O)c2c[nH]c3ccccc23)c1
inactive: dose: 50.0 mg/kg/injection, schedule: Q01DX001 (ip), vehicle: saline 104 % of control | dose: 100.0 mg/kg/injection, schedule: Q01DX001 (ip), vehicle: saline 101 % of control | dose: 200.0 mg/kg/injection, schedule: Q01DX001 (ip), vehicle: saline 98 % of control | dose: 400.0 mg/kg/injection, schedule: Q01DX001 (ip), vehicle: saline 101 % of control
